Measurements published in publication PMC11912270, “Synthesis and SAR Studies of Acyl-Thiourea Platinum(II) Complexes Yield Analogs with Dual-Stage Antiplasmodium Activity” (ACS Medicinal Chemistry Letters, 2025).

Columns and labels:
[1] = test system: early-stage gametocytes (NF54-PfS16-GFP-Luc); test: Luciferase reporter assay, early-stage gametocytes; type: cell-based, Plasmodium falciparum; conditions: single biological repeat
Experimental: (§1) All the complexes were tested for their early- and late-stage gametocyte activity in a dual-point assay (1 μM and 5 μM). […]
(§2) 1.5.In vitro activity against gametocyte stages
(§3) PfNF54 gametocytes were prepared and isolated according to the method reported by Reader […]
(§4) The in vitro gametocyte activity of the synthesized complexes was determined using a luciferase reporter line-based assay.
(§5) NF54-PfS16-GFP-Luc parasites were used for the stage-specific assessment of gametocytocidal activity. Early-stage gametocyte (stage I-III) experiments were performed on day 5 (representing >90% of early-stage and late-stage gametocyte (stages IV/V) experiments were performed on day 10. In each experiment, assays were set up with the use of 2-3% […]
(§6) Luciferase activity was determined in 30 µL parasite lysates by adding luciferin substrate (30 µL) (Promega Luciferase Assay System) at room temperature. […]

[2] = test system: Chinese hamster ovary (CHO) cell line; test: MTT cytotoxicity assay; type: cell-based; conditions: cytotoxicity, MTT, 48 h; N, n = 1, 3; read-out: CHO IC50
Experimental: 1.6.In vitro cytotoxicity assay
A 3-(4,5-dimethylthiazol-2-yl)-2,5-diphenyltetrazoliumbromide (MTT) assay was used to screen the metal complexes against the mammalian Chinese hamster ovarian (CHO) cell line.
A stock solution of each compound (2 mg/mL) in DMSO was prepared and kept at -20 °C until needed. Emetine was used as a reference drug. A starting concentration of 100 µg/mL was used, and serially diluted ten-fold using a complete medium to give the lowest concentration of 0.001 µg/mL (6 dilutions). The plates containing the CHO cells under drug pressure were […]
Plates containing the drug and cell suspension were developed by adding 25 μL of sterile MTT (Thermo Fisher Scientific) (25 µL) to each well, followed by 4 h […]
of incubation at room temperature in the dark. The plates were then centrifuged, and the supernatant was removed via aspiration. Sample absorbance was read at a wavelength of 540 […]
analysis via GraphPad Prism v.4.0 software. The IC50 values were determined for each compound were determined from the dose-response curves. […]

Cyclic voltammetry = type: physicochemical
Description: It is known that Fe^2+/Fe^3+ redox chemistry has an important role in the bioactivity of ferrocene derivatives.[33] The production of reactive oxygen species (ROS) is one of the modes of action of ferroquine and other ferrocene derivatives[34] and is linked to the correlation between their bioactivity and electrochemical behavior. We determined whether a similar correlation could be made for the mixed-ligand platinum(II) complexes reported herein given that metal centers have the potential to be oxidized and reduced. The electrochemistry of the complexes was studied using cyclic voltammetry (CV), which uses a triangular potential waveform. The CV experiments were performed in either dry MeOH or DMF containing tetrabutylammonium chloride (TBACl) as the supporting electrolyte. The working electrode was glassy carbon with a platinum wire as the counter electrode and Ag/AgCl as the reference. The anodic (Epa) and cathodic (Epc) peak potentials at 0.1 V/s and half-wave potentials (E1/2) were measured (Table 3). All of the tested complexes undergo reversible one-electron Pt^2+/Pt^+ reductions (Figures S38–S46). Complexes C2, C4, and C8 undergo a second nonreversible reduction (Epc2), which is most likely ligand-based and linked to reductions of the substituent on the bpy. Looking at SAR2, the more electron-withdrawing the substituent, the […] the E1/2 (V vs Fe/Fe^+) value was. This trend was expected, as a more electron-withdrawing substituent reduces the electron density around the metal center, making it easier for the metal to be reduced from Pt^2+ to Pt^+. […] This is also the case for other bpy-containing platinum(II) complexes that only undergo reductions.[35],[36] […]
For the cyclic voltammetry experiments a solution of the test compound (1 x 10-3) in DMSO (3 mL) is added to the electrolyte solution (0.1 M tetrabutylammonium chloride (TBACl) in DMSO). The electrochemical measurements were obtained using a Basi Epsilon Eclipse Electrochemical Analyzer Potentiostat and the CV graphs were generated using Excel. The working electrode was glassy carbon (GC) with platinum wire as the counter electrode (CE) and Ag/AgCl as the reference. […]

PfNF54 ABS parasites = test: SYBR Green I-based proliferative assay, PfNF54 ABS parasites; type: cell-based, Plasmodium falciparum; conditions: ABS, SYBR Green I, 96 h; mean ± S.E., N = 3 (no S.E.: N = 1)
Experimental: (§7) The parasites were incubated under drug […]
(§8) incubation, parasite survival was determined by adding equal volumes of parasite suspension (100 µL) and SYBR Green I lysis buffer (0.2% µL/mL of 10 000x SYBR Green I, 20 mM Tris-HCl, pH 7.5, 5 mM EDTA, 0.008% saponin (w/v) and 0.08% Triton x-100). This was incubated for 1 hour at room temperature in the dark. […]

red blood cells (RBCs) = test: Hemolysis assay; type: cell-based; conditions: up to 10 μM, 1 and 72 h
Experimental: The hemolysis assay was conducted in a 96-well round-bottom plate. A 10 mM stock of the test compound in DMSO was diluted to 10 μM using complete growth medium. Complete growth medium (100 μL) was added to all wells in columns 1 and columns 3–12. The test compound in a complete growth medium (200 μL) were added in duplicate to well 2 and serially diluted two-fold down the plate (from wells 2–11). Triton X-100 (4%, v/v) was used as
RBCs in complete growth medium
(2% hematocrit) were lysed via three freeze/thaw cycles (-80 °C/37 °C) and were added to all wells in column 1 (100 µL). Intact RBCs in complete growth medium were added to wells 2– 12 and the plates were incubated at 37 °C for either 1 hour or 72 hours. After removing the plates from the incubator, each well was mixed thoroughly with a multichannel pipette and spun in a centrifuge at 750 rcf for 5 minutes. The supernatant was transferred to a 96-well flat-bottom plate and the absorbance of each well read on a microplate reader (Thermo Scientific
Percentage hemolysis was calculated using Equation 2 and the graphs generated using GraphPad Prism 10.
% ℎ𝑒𝑚𝑜𝑙𝑦𝑠𝑖𝑠 = (𝐴𝑠 ― 𝐴0) × 100 𝑬𝒒. 𝟐

[3] = test system: late-stage gametocytes (NF54-PfS16-GFP-Luc); test: Luciferase reporter assay, late-stage gametocytes; type: cell-based, Plasmodium falciparum
Experimental: as §1, §2, §3, §4, §5, §6

PfK1 ABS parasites = type: cell-based, Plasmodium falciparum
Experimental: as §7, §8

[4] = Single-point microsomal metabolic stability, human; type: in vitro ADME; conditions: human liver microsomes, 1 µM
Experimental: 1.8. Microsomal metabolic stability studies […]
rat IGS, Xenotech), and mouse (male mouse CD1, Xenotech) liver microsomes (0.4 mg/ml) for 30 min at 37 °C. Reactions were quenched by adding ice-cold acetonitrile containing […]
disappearance of the parent compound. Half-life, clearance, and hepatic excretion ratios were determined using standard equations.6,7 Propranolol. […]

For `Nc1cc[n+]2c(c1)-c1cc(N)cc[n+]1[Pt-2]21[O+]=C(c2ccccc2)N=C(N(CCO)CCO)[S]1.[Cl-]` [C6], which “EG (% inhibition) 1 µM” value ([1]; 1 µM) is on record?
The value was 13.7 % inhibition.

And the “EG (% inhibition) 5 µM” value ([1]; 5 µM)?
Its value is 20.1 % inhibition.

And the IC50 [2]?
The IC50 was greater than 50000 nM.

And the Epa1 (Cyclic voltammetry; anodic peak potential, 0.1 V/s)?
Its Epa1 is “–1.138 V”.

What about the Epc1 (Cyclic voltammetry; cathodic peak potential, 0.1 V/s) of the same molecule?
Its Epc1 is “–1.068 V”.

What about the E1/2 (Cyclic voltammetry; half-wave potential) of the same molecule?
The E1/2 was “–1.103 V vs Ag/Ag^+”.

What about the E1/2 (Cyclic voltammetry; half-wave potential corrected to ferrocene) of the same molecule?
Its E1/2 is “–1.643 V vs Fe/Fe^+”.

And the IC50 (PfNF54 ABS parasites)?
The IC50 was 36.3 ± 0.6 nM.

And the “in vitro hemolytic activity” value (red blood cells (RBCs))?
The value was “do not induce hemolysis”.

And the “LG (% inhibition) 1 µM” value ([3]; 1 µM, single biological repeat)?
The value was 42.3 % inhibition.

And the “LG (% inhibition) 5 µM” value ([3]; 5 µM, single biological repeat)?
The value was 32.4 % inhibition.

What about the IC50 ([3]; late (IV/V) gametocytes, luciferase, 48 h, read-out: LG IC50) of the same molecule?
Its IC50 is greater than 20000 nM.

What about the IC50 (PfK1 ABS parasites; ABS, SYBR Green I, 96 h, mean ± S.E.) of the same molecule?
Its IC50 is 102 ± 13 nM.

And the “RI (resistance index)” value (PfK1 ABS parasites; RI = PfK1 IC50/PfNF54 IC50)?
Its value is 2.8.

And the “Microsomal metabolic stability (% remaining after 30 min) Human” value [4]?
Its value is 43 % remaining.
